Here are results for eleven compounds from patent US6686353B1, “Diarylalkyl cyclic diamine derivatives as chemokine receptor antagonists” (Teijin Intellectual Property Center Limited, priority 1996, dated 2004).

Experiment [1] addresses T1, human MCP-1 binding to THP-1 cells (Homo sapiens, UniProt P41597).
T1 construct: endogenous in cells; host or cells: THP-1 (human monocytic leukemia cell line), whole cells
T1 sequence (P41597 1-360 isoform P41597-2): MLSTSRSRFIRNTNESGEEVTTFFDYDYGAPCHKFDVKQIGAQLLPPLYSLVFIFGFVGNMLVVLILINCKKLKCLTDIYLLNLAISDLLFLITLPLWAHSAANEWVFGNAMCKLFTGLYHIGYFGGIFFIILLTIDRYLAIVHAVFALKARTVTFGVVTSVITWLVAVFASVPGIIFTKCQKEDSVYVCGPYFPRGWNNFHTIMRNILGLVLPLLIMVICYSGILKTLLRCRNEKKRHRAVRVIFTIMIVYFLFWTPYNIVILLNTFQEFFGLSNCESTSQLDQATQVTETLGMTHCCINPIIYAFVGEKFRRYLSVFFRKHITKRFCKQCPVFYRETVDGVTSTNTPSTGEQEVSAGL
Kind of experiment: Inhibition of [125I]-labeled human MCP-1 binding to THP-1 cells. As to conditions: at 100 μM test compound; read-out: inhibitory activity (inhibition of human MCP-1 binding to THP-1 cells). An excerpt: Measurement of Inhibition of MCP-1 Binding to TP-1 Cells
1. Construction of Recombinant Baculovirus Carrying the Human MCP-1 Gene
Based on the previously published human MCP-1 gene sequence (for example T. Yoshimura et al., Febs Letters, 1989, 244, 487-493), two synthetic DNA primers (5′-[…]-3′ and 5′-[…]-3′) flanked by restriction enzyme sites were used to amplify a DNA fragment from cDNA derived from human endothelial cells (purchased from Kurabow Co.); the amplified fragment was cut with the restriction enzymes (PstI and XbaI), ligated into a transfer vector pVL1393 (Invitrogen Co.), and the resulting vector was co-transfected along with infectious baculovirus into Sf-9 insect cells and the supernatant was plaque assayed to yield human MCP-1 gene baculovirus recombinant.
2. Synthesis of [^125I]-labeled Human MCP-1 Expressed in Baculovirus
Using the method of K. Ishii et al. (Biochem Biophys Research Communications 1995, 206, 955-961), 5×10^6 Sf-6 insect cells was infected with 5×10^7 PFU (plaque forming units) of the above human MCP-1 recombinant baculovirus and cultured for 7 days in Ex-Cell 401 medium. The culture supernatant was affinity purified using a heparin Sepharose column (Pharmacia Co.) and then further purified using reverse phase HPLC (Vydac C18 column) to prepare purified human MCP-1. The purified human MCP-1 was protein labeled by Amersham Co. using the Bolton Hunter method to yield [^125I]-labeled baculovirus expressed human MCP-1 (specific activity 2000 Ci/mmol).
3. Measurement of Inhibition of Binding of [^125I]-labeled Baculovirus Expressed Human MCP-1 to THP-1 Cells
(§1) Human monocytic leukemia cell line THP-1 was suspended in assay buffer (RPMI-1640 (Gibco-BRL Co.) containing 0.1% BSA and 25 mM HEPES adjusted to pH 7.4) to give a cell suspension of a concentration of 1×10^7 cells/mL. The test compound was diluted in the assay buffer and used as the test compound solution. [^125I]-labeled human MCP-1 described above was diluted in assay buffer to 1 mCi/mL and used as the labeled ligand solution. In a 96 well filter plate (Millipore Co.), 25 μL of test compound solution, 25 μL of labeled ligand solution and 50 μL of cell suspension were aliquoted into each well in this order, stirred (total reaction volume 100 μL), and incubated for one hour at 18° C.
After the reaction, the reaction solution was filtered, and the filter was washed twice with 200 μL of cold PBS (200 μL of cold PBS was added and then filtered). The filter was removed and placed in an RIA tube (Iuchi Seieido Co.,), and the radioactivity retained by the cells on the filter were measured using a gamma counter (Aloka Co.).
To calculate the ability of test compound to inhibit binding of human MCP-1 to THP-1 cells, non-specific binding determined by adding 100 ng of unlabeled human MCP-1 in place of the test compound was subtracted, while the counts with no test compound added was taken as 100%.
Inhibition (%)=(1−(A−B)/(C−B))×100
(A, counts with test compound added; B, counts with 100 ng of unlabeled human […] added; C, counts with [^125I]-labeled human MCP-1 added).

Experiment [2] concerns the target T2, human MIP-1α binding to THP-1 cells (Homo sapiens, UniProt P32246).
T2 construct: endogenous in cells; host or cells: THP-1 (human monocytic leukemia cell line), whole cells
T2 sequence (P32246 1-355): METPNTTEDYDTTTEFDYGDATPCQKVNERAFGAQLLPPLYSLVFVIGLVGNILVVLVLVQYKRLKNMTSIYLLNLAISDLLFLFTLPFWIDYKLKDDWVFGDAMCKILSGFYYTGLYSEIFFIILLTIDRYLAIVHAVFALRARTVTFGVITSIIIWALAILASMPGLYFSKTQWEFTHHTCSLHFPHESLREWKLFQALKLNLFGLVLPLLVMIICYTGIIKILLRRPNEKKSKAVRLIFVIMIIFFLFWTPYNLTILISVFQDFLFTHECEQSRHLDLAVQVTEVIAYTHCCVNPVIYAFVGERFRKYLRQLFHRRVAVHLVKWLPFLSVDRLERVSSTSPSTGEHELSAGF
Kind of experiment: Inhibition of MIP-1α binding to THP-1 cells. Conditions: at 100 μM test compound; read-out: inhibitory activity (inhibition of human MIP-1α binding to THP-1 cells). Here is the method:
Measurement of Inhibition of MIP-1α Binding to THP-1 Cells by Test Compounds
as §1, with “Iodinated” for “[^125I]-labeled”, “MIP-1α (DuPont NEN Co.)” for “MCP-1 described above”, “250 nCi/mL” for “1 mCi/mL”, “the” for “the labeled”, “solution.” for “solution,”
After the reaction, the reaction solution was filtered, and the filter was washed twice with 200 μL of cold PBS (200 μL of cold PBS was added and then filtered). The filter was removed and placed in an RIA tube (Iuchi Seieido Co.) and the radioactivity retained by the cells on the filter were measured using a gamma counter (Aloka Co.).
To calculate the ability of test compounds to inhibit binding of human MIP-1α to THP-1 cells, non-specific binding determined by adding 100 ng of unlabeled human MIP-1α (Peprotech Co.) in place of the test compound was subtracted, while the counts with no test compound added was taken as 100%. […]

A further experiment addresses T3, MCP-1 receptor (Homo sapiens, UniProt P41597).
T3 construct: expressed in transfected cells
T3 sequence (P41597 1-360 isoform P41597-2): T1 sequence (P41597 1-360 isoform P41597-2)
Description: Inhibition of binding of [125I]-labeled human MCP-1 to cells expressing the MCP-1 receptor (293-EBNA transfectant). Conditions: dose dependent inhibition; 293-EBNA cells expressing MCP-1 receptor; read-out: 50% inhibitory concentration (IC50), MCP-1 binding to MCP-1 receptor expressing cells. An excerpt:
Measurement of Inhibition of Binding of [^125I]-labeled Human MCP-1 to Cells Expressing the MCP-1 Receptor
1. Derivation of Cells Expressing the MCP-1 Receptor
cDNA fragment containing the MCP-1 receptor reported by S. Yamagami et al., Biochemical Biophysical Research Communications 1994, 202, 1156-1162) was cloned into the expression plasmid pCEP4 (Invitrogen Co.) at the NotI site, and the plasmid obtained was transfected into the human kidney epithelial cell line 293-EBNA using the Lipofectamine reagent (Gibco-BRL Co.). The cells were cultured in the presence of the selective agent (Hygromycin), and a stably expressing transfectant line was obtained. The express ion of the receptor was confirmed by binding of [^125I]-labeled human MCP-1.
2. Measurement of Inhibition of Binding of [^125I]-labeled Baculovirus Expressed Human MCP-1 to the MCP-1 Receptor Expressing Cells
The MCP-1 receptor expressing cells on tissue culture dishes were scraped using a call scraper and suspended in assay buffer (D-MEM(Gibco-BRL Co.) containing 0.1% BSA and 25 mM HEPES adjust ed to pH 7.4) to give a cell suspension of a concentration of 6×10^6 cellls/mL. The test compound was diluted in the assay buffer to concentrations of […], and 100 μM. The remainder of the procedure was as described in Example 163.

In another experiment the test system is THP-1 cells. Description: Inhibition of cell chemotaxis caused by MCP-1 (THP-1 cells). The class given is cell-based, human. Conditions: MCP-1 20 ng/mL, 37° C. 2 hr, read-out: 50% inhibition concentration (IC50) of cell migration. Here is the method:
Measurement of Inhibition of Cell Chemotaxis
In order to determine the inhibition of call chemotaxis by the compounds of this invention, we measured call chemotaxis caused by monocyte chemotactic factor MCP-1 using the human monocytic leukemia cell line THP-1 as the chemotactic cell according to the method of Fall et al. (J. Immunol. Methods, […], 33, 239-247). 2×10^6 cells/mL of THP-1 cells (suspended in RPMI-1640 (Flow Laboratories Co.) +10% FCS) was placed in the upper chamber (200 μL) of a 96 well micro-chemotaxis chamber (Neuroprobe, registered tradename), and human recombinant MCP-1 in a same solution (Peprotech Co.) at a final concentration of 20 ng/mL was placed in the lower chamber, with a polycarbonate filter (PVP-free, Neuroprobe; registered tradename) placed between the two chambers, These were incubated at 37° C. for 2 hr in 5% CO2.
The filter was removed, and the cells which had migrated to the underside of the filter was fixed, stained using Diff Quick (Kokusai Shiyaku Co.) and then quantitated using a plate reader (Molecular Device Co.) at a wavelength of 550 nm to determine the index of cell migration as a mean of 3 wells, In addition. test compounds were placed in the upper chamber along with THP-1, and the inhibition of cell migration (inhibition IC50 (μM)) was determined. […]

SMILES strings stand for the structures. Read-outs that look alike come from different tables or passages of the source. A value given as a limit tells only on which side of the number the result lay.

What is called inhibition is the relative decrease from the control value, in per cent. `NC(=O)c1ccc(CN2CCCN(CCC(c3ccccc3)c3ccccc3)CC2)cc1` [Compound No. 55, 1-(3,3-Diphenylpropyl)-4-(4-carbamoylbenzyl)homopiperazine]: the inhibition at 100 µM in experiment [1] was > 20%.
Take `OC(CCN1CCCN(Cc2ccc(Cl)cc2)CC1)(c1ccccc1)c1ccccc1` [Compound No. 107, 1-(3-Hydroxy-3,3-diphenylpropyl)-4-(4-chlorobenzyl)homopiperazine]: the inhibition at 100 µM in experiment [2] and in experiment [1] was > 20% each time.
On to `CS(=O)(=O)c1ccc(CN2CCCN(CCC(O)(c3ccc(O)cc3)c3ccc(O)cc3)CC2)cc1` [Compound No. 119, 1-[3,3-bis(4-Hydroxyphenyl)-3-hydroxypropyl]-4-[4-(methylsulfonyl)benzyl]homopiperazine], for which the inhibition at 100 µM in experiment [1] was > 20%.
On the same count and under the same terms, then `CS(=O)(=O)c1ccc(CN2CCCN(CCC(O)(c3ccco3)c3ccco3)CC2)cc1` [Compound No. 129, 1-[3,3-Di(2-furyl)-3-hydroxypropyl]-4-[4-(methylsulfonyl)benzyl]homopiperazine], with > 20%.
`Cn1cccc1C(O)(CCN1CCCN(Cc2ccc(S(C)(=O)=O)cc2)CC1)c1ccccc1` (centres unmarked) [Compound No. 136, 1-[3-Hydroxy-3-(1-methyl-2-pyrrolyl)-3-phenylpropyl]-4-[4-(methylsulfonyl)benzyl]homopiperazine]: in experiment [1], the inhibition at 100 µM is > 20%.
In the case of `CC(=O)Nc1cccc(C(O)(CCN2CCCN(Cc3ccc(S(C)(=O)=O)cc3)CC2)c2ccccc2)c1` (centres unmarked) [Compound No. 162, 1-[3-(3-Acetylaminophenyl)-3-hydroxy-3-phenylpropyl]-4-[4-(methylsulfonyl)benzyl]homopiperazine], in experiment [1], the inhibition at 100 µM was > 20%.
On the same count and under the same terms, then `CC(C)(C)OC(=O)N1CCCN(CCC(O)(c2ccccc2)c2cccc(O)c2)CC1` (centres unmarked) [Compound No. 294, 1-(tert-butyloxycarbonyl)-4-[3-hydroxy-3-(3-hydroxyphenyl)-3-phenylpropyl]homopiperazine], with > 20%; and `Oc1cccc(C(O)(CCN2CCCNCC2)c2ccccc2)c1` (centres unmarked) [Compound No. 295, 1-[3-hydroxy-3-(3-hydroxyphenyl)-3-phenylpropyl]homopiperazine], with > 20%; and `CC(=O)N1CCCN(CCC(O)(c2ccccc2)c2cccc(O)c2)CC1` (centres unmarked) [Compound No. 296, 1-acetyl-4-[3-hydroxy-3-(3-hydroxyphenyl)-3-phenylpropyl]homopiperazine], with > 20%.
On to `CS(=O)(=O)c1ccc(CN2CCCN(CCC(c3ccccc3)c3ccccc3)CC2)cc1` [compound 36], for which the inhibition at 100 µM in experiment [1] is > 20%. Also, the IC50 was 17 µM at MCP-1 receptor and 9 µM with THP-1 cells (Homo sapiens).
For the compound `c1ccc(C(CCN2CCCN(Cc3ccncc3)CC2)c2ccccc2)cc1` [compound 240], in the experiment on THP-1 cells, the IC50 stood at 30 µM.
